Measured values reported in paper PMC11189555, “Aryl amino acetamides prevent Plasmodium falciparum ring development via targeting the lipid-transfer protein PfSTART1” (Nature Communications, 2024).
pEC50: −log10 of the molar value. Read-outs that look alike come from different tables or passages of the source.

System: 3D7 P. falciparum parasites
Test: Growth inhibition assay (72 h, LDH activity)
Format: cell-based, Plasmodium falciparum
Settings: for pEC50: Plasmodium falciparum
Protocol: Parasite growth assays with inhibitory compounds were performed as per[11] and are fully described in the Supplementary Information. […]
Growth inhibition assays. Synchronised ring-stage parasites (0.3-0.6% parasitemia, 2% haematocrit) were grown for 72 h in a serial-dilution of the compound under […]
and compound 4. Note that M-833 was first purchased from MolPort (MolPort -002-267-916) then made in-house at WEHI: the differences observed in EC50s across experiments are attributed to the different batches of M -833. For some experiments, 0, 0.25 or 2.5 mM of glucosamine (GlcN) was also added. Experiments were set up in technical duplicates or triplicates. Following a freeze -thaw cycle, lactate dehydrogenase (LDH) activity was assessed as an indicator of parasite growt h 5. 30 μL of parasite culture was incubated for 30 min in the dark with 75 μL Malstat mixture (0.1 M Tris pH 9.0, 20 g/L lactic acid, pH 7.5, 0.2% Triton-X100, 0.5 g/L acetylpyridine adenine dinucleotide (APAD, Sigma), 200 μg/mL nitroblue tetrazolium (NBT; Sigma), 1 μg/mL phenozine ethosulfate (PES; Sigma)). Absorbance was then measured at 650 nm, transformed using the formula below, plotted against the logarithm of the concentrations, and a non-linear regression (log(inhibitor) vs. response, variable slope) was calculated using GraphPad Prism to assess the half-inhibitory […]
Growth inhibition % = (1 − average(sample)− average(uRBC)) ∗ 100 […]
The DMSO samples were also used to assess growth of parasite in the presence of 0.25 and 2.5 mM GlcN (normalised by DMSO in 0 mM GlcN). […]

[1] = 3D7, conc. 3.04832 nM, Biological replicate 1 (2021-10-25)
[2] = 3D7, conc. 3.04832 nM, Biological replicate 2 (2021-11-03)
[3] = 3D7, conc. 3.04832 nM, Biological replicate 3 (2021-11-11)
[4] = 3D7, conc. 9.14495 nM, Biological replicate 1 (2021-10-25)
[5] = 3D7, conc. 9.14495 nM, Biological replicate 2 (2021-11-03)
[6] = 3D7, conc. 9.14495 nM, Biological replicate 3 (2021-11-11)
[7] = 3D7, conc. 27.4348 nM, Biological replicate 1 (2021-10-25)
[8] = 3D7, conc. 27.4348 nM, Biological replicate 2 (2021-11-03)
[9] = 3D7, conc. 27.4348 nM, Biological replicate 3 (2021-11-11)
[10] = 3D7, conc. 82.3045 nM, Biological replicate 1 (2021-10-25)
[11] = 3D7, conc. 82.3045 nM, Biological replicate 2 (2021-11-03)
[12] = 3D7, conc. 82.3045 nM, Biological replicate 3 (2021-11-11)
[13] = 3D7, conc. 246.914 nM, Biological replicate 1 (2021-10-25)
[14] = 3D7, conc. 246.914 nM, Biological replicate 2 (2021-11-03)
[15] = 3D7, conc. 246.914 nM, Biological replicate 3 (2021-11-11)
[16] = 3D7, conc. 740.741 nM, Biological replicate 1 (2021-10-25)
[17] = 3D7, conc. 740.741 nM, Biological replicate 2 (2021-11-03)
[18] = 3D7, conc. 740.741 nM, Biological replicate 3 (2021-11-11)
[19] = 3D7, conc. 2222.22 nM, Biological replicate 1 (2021-10-25)
[20] = 3D7, conc. 2222.22 nM, Biological replicate 2 (2021-11-03)
[21] = 3D7, conc. 2222.22 nM, Biological replicate 3 (2021-11-11)
[22] = 3D7, conc. 6666.67 nM, Biological replicate 1 (2021-10-25)
[23] = 3D7, conc. 6666.67 nM, Biological replicate 2 (2021-11-03)
[24] = 3D7, conc. 6666.67 nM, Biological replicate 3 (2021-11-11)
[25] = 3D7, conc. 20000 nM, Biological replicate 1 (2021-10-25)
[26] = 3D7, conc. 20000 nM, Biological replicate 2 (2021-11-03)
[27] = 3D7, conc. 20000 nM, Biological replicate 3 (2021-11-11)
[28] = 3D7, 72 h, Supplementary Table 1, 3D7, 72 h, read-out: EC50
[29] = 3D7, Fig 4A, 3D7 parasites, read-out: Pf 3D7 EC50 (SD)

SMILES	(av-uRBC) / (DMSO-uRBC) x100 [1]	(av-uRBC) / (DMSO-uRBC) x100 [2]	(av-uRBC) / (DMSO-uRBC) x100 [3]	(av-uRBC) / (DMSO-uRBC) x100 [4]	(av-uRBC) / (DMSO-uRBC) x100 [5]	(av-uRBC) / (DMSO-uRBC) x100 [6]	(av-uRBC) / (DMSO-uRBC) x100 [7]	(av-uRBC) / (DMSO-uRBC) x100 [8]	(av-uRBC) / (DMSO-uRBC) x100 [9]	(av-uRBC) / (DMSO-uRBC) x100 [10]	(av-uRBC) / (DMSO-uRBC) x100 [11]	(av-uRBC) / (DMSO-uRBC) x100 [12]	(av-uRBC) / (DMSO-uRBC) x100 [13]	(av-uRBC) / (DMSO-uRBC) x100 [14]	(av-uRBC) / (DMSO-uRBC) x100 [15]	(av-uRBC) / (DMSO-uRBC) x100 [16]	(av-uRBC) / (DMSO-uRBC) x100 [17]	(av-uRBC) / (DMSO-uRBC) x100 [18]	(av-uRBC) / (DMSO-uRBC) x100 [19]	(av-uRBC) / (DMSO-uRBC) x100 [20]	other results
O=C(CNc1ccc(Cl)c(S(=O)(=O)N2CCOCC2)c1)Nc1ccc(F)c(Cl)c1 [compound 2, reference compound]	101.583	104.234	118.798	98.3522	106.026	112.58	92.7855	105.906	106.329	76.9881	101.625	81.2348	38.3866	48.8275	35.6638	12.6522	13.3573	9.565	9.471	10.1641	(av-uRBC) / (DMSO-uRBC) x100 [21]: 7.82; (av-uRBC) / (DMSO-uRBC) x100 [22]: 8.762; (av-uRBC) / (DMSO-uRBC) x100 [23]: 10.3401; (av-uRBC) / (DMSO-uRBC) x100 [24]: 6.881; (av-uRBC) / (DMSO-uRBC) x100 [25]: 8.397; (av-uRBC) / (DMSO-uRBC) x100 [26]: 8.683; (av-uRBC) / (DMSO-uRBC) x100 [27]: 3.998; pEC50 [28]: 6.77; pEC50 [29]: 6.85
CC(C)(Oc1ccc(Cl)c(S(=O)(=O)N2CCOCC2)c1)C(=O)Nc1ccc(F)c(Cl)c1 [compound 3]	98.9546	99.5733	55.9066	81.8447	87.421	38.3092	30.9131	28.899	16.2848	11.7409	11.9543	7.809	8.8892	10.72	6.2069	8.477	10.3467	4.271	8.256	10.0343	(av-uRBC) / (DMSO-uRBC) x100 [21]: 3.637; (av-uRBC) / (DMSO-uRBC) x100 [22]: 8.6332; (av-uRBC) / (DMSO-uRBC) x100 [23]: 8.244; (av-uRBC) / (DMSO-uRBC) x100 [24]: 2.725; (av-uRBC) / (DMSO-uRBC) x100 [25]: 7.467; (av-uRBC) / (DMSO-uRBC) x100 [26]: 5.95; (av-uRBC) / (DMSO-uRBC) x100 [27]: -1.791; improvement in antiparasitic activity relative to the activity of M-833 (EC50 based): 10 fold; pEC50 [28]: 7.80; pEC50 [29]: 6.82; pEC50 (3D7, text on structure activity relationship (Fig 4A), read-out: EC50, antiparasitic activity): 6.92
